US6586441B2, “Adenosine receptor ligands and their use in the treatment of disease” (Hoffman-La Roche Inc., priority 2000, dated 2003)
Like-named read-outs stand apart in the source and are kept apart here.

Experiments:
[1] = molecular target: T1, human adenosine A2A receptor (Homo sapiens, UniProt P29274); test: Human adenosine A2A receptor [3H]-SCH-58261 binding assay
T1 construct: expressed in transfected cells; host or cells: CHO cells, semliki forest virus expression system; membrane preparation
Summary of the method: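 Membranes from CHO cells expressing the human receptor (Semliki Forest virus system) were incubated with 1 nM [3H]-SCH-58261 and adenosine deaminase. The buffer was Tris pH 7.4 with NaCl, KCl, CaCl2 and MgCl2, and the read-out was SPA after 1 h at room temperature. Non-specific binding was defined with XAC; compounds were run at 10 concentrations (10 μM–0.3 nM), and IC50 values were converted to Ki by Cheng-Prusoff.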

[2] = molecular target: T2, human adenosine A3 receptor (Homo sapiens, UniProt P0DMS8); test: Human adenosine A3 receptor [125I]-AB-MECA binding assay; settings: membranes of CHO cells, read-out: hA3 (pKi) (converted)
T2 construct: expressed in transfected cells; host or cells: CHO cells, semliki forest virus expression system; membrane preparation
T2 sequence (P0DMS8 1-318): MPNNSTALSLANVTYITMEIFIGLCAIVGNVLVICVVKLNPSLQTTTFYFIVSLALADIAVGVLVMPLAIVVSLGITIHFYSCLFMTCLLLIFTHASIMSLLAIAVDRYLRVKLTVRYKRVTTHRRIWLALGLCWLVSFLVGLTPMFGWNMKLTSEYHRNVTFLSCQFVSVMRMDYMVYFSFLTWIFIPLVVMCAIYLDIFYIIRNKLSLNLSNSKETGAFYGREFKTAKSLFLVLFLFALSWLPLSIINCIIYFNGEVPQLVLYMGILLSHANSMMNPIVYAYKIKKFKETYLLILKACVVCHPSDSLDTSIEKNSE
Method: The gene encoding human adenosine A3 receptor was recombinantly introduced and expressed in chinese hamster ovary (CHO) cells using the semliki forest virus expression system. Cells were harvested, washed twice by centrifugation, homogenised and again washed by centrifugation. The final washed membrane pellet was suspended in a Tris (50 mM) buffer containing 120 mM NaCl, 5 mM KCl, 2 mM CaCl2 and 10 mM MgCl2 (pH 7.4) (buffer A). The [^125I]-AB-MECA ([N(6)-(4-amino-3-iodobenzyl)-5′-N-methylcarbamoyl-adenosine]; 0.05 nM) binding assay was carried out in 96-well plates in the presence of 20 μg of membrane protein and 0.1 U adenosine deaminase in a final volume of 200 μl of buffer A. Non-specific binding was defined using xanthine amine congener (XAC; 2 μM). Compounds were tested at 10 concentrations from 10 μM-0.3 nM. All assays were conducted in duplicate and repeated at least two times. Assay plates were incubated for 1 hour at room temperature before filtration through Whatman Unifilter GF/C 96-well filter plates (preincubated with 0.3% polyethyleneimine). Filters were washed 3 times with 0.3 ml of cold (4° C.) Tris (50 mM)-Nacl (120 mM) buffer (pH 7.4). Microscint 40 scintillation fluid (50 μl) was added to each well and the wells sealed. After gentle shaking for 20 min, plates were counted on a Packard Topcount scintillation counter. IC50 values were calculated using a non-linear curve fitting program and Ki values calculated using the Cheng-Prussoff equation.

[3] = molecular target: T3, human adenosine A1 receptor (Homo sapiens, UniProt P30542); test: Human adenosine A1 receptor [3H]-DPCPX binding assay; settings: membranes of CHO cells, read-out: hA1 (pKi) (converted)
T3 construct: expressed in transfected cells; host or cells: CHO cells, semliki forest virus expression system; membrane preparation
T3 sequence (P30542 1-326): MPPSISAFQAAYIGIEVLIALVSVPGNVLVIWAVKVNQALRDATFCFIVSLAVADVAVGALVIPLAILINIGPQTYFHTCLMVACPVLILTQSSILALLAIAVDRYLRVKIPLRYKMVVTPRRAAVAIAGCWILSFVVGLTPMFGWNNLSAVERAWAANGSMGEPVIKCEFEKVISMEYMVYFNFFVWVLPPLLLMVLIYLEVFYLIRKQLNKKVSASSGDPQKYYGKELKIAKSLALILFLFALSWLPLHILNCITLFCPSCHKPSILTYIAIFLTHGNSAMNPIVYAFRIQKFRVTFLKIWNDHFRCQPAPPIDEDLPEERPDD
Method: The gene encoding human adenosine A1 receptor was recombinantly introduced and expressed in chinese hamster ovary (CHO) cells using the semliki forest virus expression system. Cells were harvested, washed twice by centrifugation, homogenised and again washed by centrifugation. The final washed membrane pellet was suspended in a Tris (50 mM) buffer containing 120 mM NaCl, 5 mM KCl, 2 mM CaCl2 and 10 mM MgCl2 (pH 7.4) (buffer A). The [^3H]-DPCPX (([propyl-3H]8-cyclopentyl-1,3-dipropyxanthine); 0.6 nM) binding assay was carried out in 96-well plates in the presence of 2.5 μg of membrane protein, 0.5 mg of Ysi-poly-1-lysine SPA beads and 0. I U adenosine deaminase in a final volume of 200 μl of buffer A. Non-specific binding was defined using xanthine amine congener (XAC; 2 μM). Compounds were tested at 10 concentrations from 10 μM-0.3 nM. All assays were conducted in duplicate and repeated at least two times. Assay plates were incubated for 1 hour at room temperature before centrifugation and then bound ligand determined using a Packard Topcount scintillation counter. IC50 values were calculated using a non-linear curve fitting program and Ki values calculated using the Cheng-Prussoff equation.

[4] = human A2A receptor, selectivity table, read-out: hA2 (pKi) (converted)
[5] = human A2A receptor, selectivity table
[6] = human A2a receptor, membranes of CHO cells, [3H]-SCH-58261, read-out: pKi (affinity to the human A2a receptor) (converted)

T1 sequence (P29274 whole entry): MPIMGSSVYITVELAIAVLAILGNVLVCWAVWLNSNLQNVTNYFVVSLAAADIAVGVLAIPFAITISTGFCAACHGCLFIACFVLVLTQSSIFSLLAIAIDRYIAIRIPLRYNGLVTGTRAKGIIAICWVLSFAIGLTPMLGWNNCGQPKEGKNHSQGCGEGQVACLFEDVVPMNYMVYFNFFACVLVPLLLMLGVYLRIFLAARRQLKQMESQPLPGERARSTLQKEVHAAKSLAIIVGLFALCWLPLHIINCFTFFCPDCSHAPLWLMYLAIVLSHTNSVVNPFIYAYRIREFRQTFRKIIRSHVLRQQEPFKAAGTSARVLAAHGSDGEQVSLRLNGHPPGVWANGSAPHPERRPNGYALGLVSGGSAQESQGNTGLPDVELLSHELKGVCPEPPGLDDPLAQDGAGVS

Row | Compound | Ki [1, 4] [nM] | Ki [2] [µM] | Ki [3] [nM] | hA2 (pKi) [1, 5] | Ki [1, 6] [nM]
1 | COc1cc(-c2nc(N)nc(SC)c2C#N)cc(OC)c1OC [Example 15, 2-Amino-4-methylsulfanyl-6-(3,4,5-trimethoxy-phenyl)-pyrimidine-5-carbonitrile] | 57.5 | 1.95 | 1320 | – | –
2 | N#Cc1c(NCCNc2ccccc2)nc(N)nc1-c1ccco1 [Example 132, 2-Amino-4-furan-2-yl-6-(2-phenylamino-ethylamino)-pyrimidine-5-carbonitrile] | – | 6.03 | 692 | 8.33 | 4.68
3 | Cc1ccccc1CNc1nc(N)nc(-c2ccco2)c1C#N [Example 288, 2-Amino-4-furan-2-yl-6-(2-methyl-benzylamino)-pyrimidine-5-carbonitrile] | – | 0.151 | 372 | 8.59 | 2.57
4 | N#Cc1c(OCc2ccc3ccccc3c2)nc(N)nc1-c1ccco1 [Example 303, 2-Amino-4-furan-2-yl-6-(naphthalen-2-ylmethoxy)-pyrimidine-5-carbonitrile] | – | 8.71 | 316 | 8.60 | 2.51

Results, then the molecule that gave them:

Row | Ki [1, 4] [nM] | Ki [2] [µM] | Ki [3] [nM] | hA2 (pKi) [1, 5] | Ki [1, 6] [nM] | Compound
5 | – | 2.04 | 389 | 8.34 | 4.57 | N#Cc1c(/C=C/c2ccccc2)nc(N)nc1-c1ccco1 [Example 149, (E)-2-Amino-4-furan-2-yl-6-styryl-pyrimidine-5-carbonitrile]
6 | – | 2.14 | 646 | 8.40 | 3.98 | CCc1ccc(CNc2nc(N)nc(-c3ccco3)c2C#N)cc1 [Example 375, 2-Amino-4-(4-ethyl-benzylamino)-6-furan-2-yl-pyrimidine-5-carbonitrile]
7 | – | 7.24 | 851 | 8.27 | 5.37 | N#Cc1c(NCCNc2ccc(Cl)cc2)nc(N)nc1-c1ccco1 [Example 318, 2-Amino-4-[2-(4-chloro-phenylamino)-ethylamino]-6-furan-2-yl-pyrimidine-5-carbonitrile]
8 | – | 8.91 | 1660 | 8.33 | 4.68 | N#Cc1c(NCc2ccccc2)nc(N)nc1-c1ccco1 [Example 42, 2-Amino-4-benzylamino-6-furan-2-yl-pyrimidine-5-carbonitrile]
9 | 36.3 | 1.26 | 2510 | – | – | N#Cc1cnc(N)nc1-c1cccs1 [Example 26, 2-Amino-4-thiophen-2-yl-2-pyrimidine-5-carbonitrile]
10 | – | 3.98 | 2880 | 8.26 | 5.5 | N#Cc1c(NCc2ccc(Br)cc2)nc(N)nc1-c1ccco1 [Example 325, 2-Amino-4-(4-bromo-benzylamino)-6-furan-2-yl-pyrimidine-5-carbonitrile]
